Data set [1] addresses Human serotonin 5-HT6 receptor (Homo sapiens, UniProt P50406). Briefly: [3H]LSD binding assay on cloned 5-HT6 receptor.
The mark [2] stands for this setting: IC50 (nM), binding affinity to the 5-HT6 receptor, Table 2, 1.87 nM [3H]LSD, cloned human receptor membranes from Sf21 cells, 37° C. 60 min.

For orientation: melting point means the temperature, or range, at which the solid turns liquid. By IC50 is commonly meant the midpoint of a concentration-inhibition curve. High values mean weaker potency in that assay, low ones greater potency in that assay.

Like-named read-outs stand apart in the source and are kept apart here.

Sequence of Human serotonin 5-HT6 receptor (P50406 whole entry): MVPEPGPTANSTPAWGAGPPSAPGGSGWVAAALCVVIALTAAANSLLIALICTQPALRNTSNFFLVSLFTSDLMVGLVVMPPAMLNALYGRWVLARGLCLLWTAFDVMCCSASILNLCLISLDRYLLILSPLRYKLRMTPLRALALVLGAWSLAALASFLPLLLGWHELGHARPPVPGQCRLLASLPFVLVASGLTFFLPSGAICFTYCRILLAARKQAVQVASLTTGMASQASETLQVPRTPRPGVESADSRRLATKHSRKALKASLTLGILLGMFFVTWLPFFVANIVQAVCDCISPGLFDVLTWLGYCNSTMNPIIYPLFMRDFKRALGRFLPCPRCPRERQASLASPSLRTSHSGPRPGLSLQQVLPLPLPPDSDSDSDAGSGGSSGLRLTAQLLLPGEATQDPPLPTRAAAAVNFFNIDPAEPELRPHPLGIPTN

In turn, `CN1CCN(c2cc(Cl)cc3c2S(=O)(=O)N(Cc2ccc(F)cc2)C(=O)N3Cc2ccccc2)CC1` [Example 4, 4-Benzyl-6-chloro-2-(4-fluoro-benzyl)-8-(4-methyl-piperazin-1-yl)-1,1-dioxo-1,4-dihydro-2H-1λ^6-benzo[1,2,4]thiadiazin-3-one] gave a melting point of 112 to 113 °C. The molecule also gave a 50% inhibitory concentration (IC50) in data set [1] (setting [2]) of 5.4 nM. `CN1CCN(c2cc(Cl)cc3c2S(=O)(=O)N(Cc2cccc(Cl)c2)C(=O)N3Cc2ccccc2)CC1` [Example 6, 4-Benzyl-6-chloro-2-(3-chloro-benzyl)-8-(4-methyl-piperazin-1-yl)-1,1-dioxo-1,4-dihydro-2H-1λ^6-benzo[1,2,4]thiadiazin-3-one] had a melting point of 87 to 88 °C. The same molecule had an IC50 in data set [1] (setting [2]) of 5.2 nM. `CN1CCN(c2cc(Cl)cc3c2S(=O)(=O)N(Cc2ccccc2Br)C(=O)N3Cc2ccccc2)CC1` [Example 8, 4-Benzyl-2-(2-bromo-benzyl)-6-chloro-8-(4-methyl-piperazin-1-yl)-1,1-dioxo-1,4-dihydro-2H-1λ^6-benzo[1,2,4]thiadiazin-3-one] gave a melting point of 107 to 109 °C. In addition, the IC50 in data set [1] (setting [2]) is 8.9 nM. `CN1CCN(c2cc(Cl)cc3c2S(=O)(=O)N(Cc2cccc(Br)c2)C(=O)N3Cc2ccccc2)CC1` [Example 9, 4-Benzyl-2-(3-bromo-benzyl)-6-chloro-8-(4-methyl-piperazin-1-yl)-1,1-dioxo-1,4-dihydro-2H-1λ^6-benzo[1,2,4]thiadiazin-3-one] showed a melting point of 96 to 98 °C. Also, the half-inhibitory concentration (IC50) in data set [1] (setting [2]) was determined as 2.2 nM. In turn, `CN1CCN(c2cc(Cl)cc3c2S(=O)(=O)N(Cc2ccc(Br)cc2)C(=O)N3Cc2ccccc2)CC1` [Example 10, 4-Benzyl-2-(4-bromo-benzyl)-6-chloro-8-(4-methyl-piperazin-1-yl)-1,1-dioxo-1,4-dihydro-2H-1λ^6-benzo[1,2,4]thiadiazin-3-one] came in with a melting point of 115 to 116 °C. The half-inhibitory concentration (IC50) in data set [1] (setting [2]) was 6.1 nM. The corresponding values for `CN1CCN(c2cc(Cl)cc3c2S(=O)(=O)N(Cc2cccc(I)c2)C(=O)N3Cc2ccccc2)CC1` [Example 11, 4-Benzyl-6-chloro-2-(3-iodo-benzyl)-8-(4-methyl-piperazin-1-yl)-1,1-dioxo-1,4-dihydro-2H-1λ^6-benzo[1,2,4]thiadiazin-3-one] are 96 to 98 °C and 4.4 nM.

Molecule `CN1CCN(c2cc(Cl)cc3c2S(=O)(=O)N(Cc2ccc(I)cc2)C(=O)N3Cc2ccccc2)CC1` [Example 12, 4-Benzyl-6-chloro-2-(4-iodo-benzyl)-8-(4-methyl-piperazin-1-yl)-1,1-dioxo-1,4-dihydro-2H-1λ^6-benzo[1,2,4]thiadiazin-3-one] displayed a melting point of 110 to 111 °C. The same molecule registered an IC50 in data set [1] (setting [2]) of 1.4 nM. Consider `Cc1ccccc1CN1C(=O)N(Cc2ccccc2)c2cc(Cl)cc(N3CCN(C)CC3)c2S1(=O)=O` [Example 13, 4-Benzyl-6-chloro-2-(2-methyl-benzyl)-8-(4-methyl-piperazin-1-yl)-1,1-dioxo-1,4-dihydro-2H-1λ^6-benzo[1,2,4]thiadiazin-3-one], for which the melting point was in the range of 148 to 150 °C. Further, the 50% inhibitory concentration (IC50) in data set [1] (setting [2]) was determined as 1.6 nM.

Molecule `Cc1cccc(CN2C(=O)N(Cc3ccccc3)c3cc(Cl)cc(N4CCN(C)CC4)c3S2(=O)=O)c1` [Example 14, 4-Benzyl-6-chloro-2-(3-methyl-benzyl)-8-(4-methyl-piperazin-1-yl)-1,1-dioxo-1,4-dihydro-2H-1λ^6-benzo[1,2,4]thiadiazin-3-one] had a melting point of 188 to 191 °C. The same molecule came in with an IC50 in data set [1] (setting [2]) of 11.6 nM. `Cc1ccc(CN2C(=O)N(Cc3ccccc3)c3cc(Cl)cc(N4CCN(C)CC4)c3S2(=O)=O)cc1` [Example 15, 4-Benzyl-6-chloro-2-(4-methyl-benzyl)-8-(4-methyl-piperazin-1-yl)-1,1-dioxo-1,4-dihydro-2H-1λ^6-benzo[1,2,4]thiadiazin-3-one] returned a melting point of 180 to 185 °C. The molecule also yielded an IC50 in data set [1] (setting [2]) of 5.4 nM. `COc1ccccc1CN1C(=O)N(Cc2ccccc2)c2cc(Cl)cc(N3CCN(C)CC3)c2S1(=O)=O` [Example 16, 4-Benzyl-6-chloro-2-(2-methoxy-benzyl)-8-(4-methyl-piperazin-1-yl)-1,1-dioxo-1,4-dihydro-2H-1λ^6-benzo[1,2,4]thiadiazin-3-one] registered a melting point of 93 to 94 °C. Moreover, in data set [1] (setting [2]), the IC50 stood at 4.6 nM.

In turn, `CN1CCN(c2cc(Cl)cc3c2S(=O)(=O)N(Cc2ccccc2[N+](=O)[O-])C(=O)N3Cc2ccccc2)CC1` [Example 20, 4-Benzyl-6-chloro-8-(4-methyl-piperazin-1-yl)-2-(2-nitro-benzyl)-1,1-dioxo-1,4-dihydro-2H-1λ^6-benzo[1,2,4]thiadiazin-3-one] returned a melting point of 84 to 86 °C. This molecule also registered a half-maximal inhibitory concentration (IC50) in data set [1] (setting [2]) of 12.3 nM. As to `CN1CCN(c2cc(Cl)cc3c2S(=O)(=O)N(Cc2cccc([N+](=O)[O-])c2)C(=O)N3Cc2ccccc2)CC1` [Example 21, 4-Benzyl-6-chloro-8-(4-methyl-piperazin-1-yl)-2-(3-nitro-benzyl)-1,1-dioxo-1,4-dihydro-2H-1λ^6-benzo[1,2,4]thiadiazin-3-one], the melting point was in the range of 172 to 175 °C. In data set [1] (setting [2]), the half-inhibitory concentration (IC50) came to 4.2 nM. As to `CN1CCN(c2cc(Cl)cc3c2S(=O)(=O)N(Cc2ccc([N+](=O)[O-])cc2)C(=O)N3Cc2ccccc2)CC1` [Example 22, 4-Benzyl-6-chloro-8-(4-methyl-piperazin-1-yl)-2-(4-nitro-benzyl)-1,1-dioxo-1,4-dihydro-2H-1λ^6-benzo[1,2,4]thiadiazin-3-one], the melting point lay in the range of 163 to 164 °C. The same molecule gave an IC50 in data set [1] (setting [2]) of 8.1 nM. `COC(=O)c1ccc(CN2C(=O)N(Cc3ccccc3)c3cc(Cl)cc(N4CCN(C)CC4)c3S2(=O)=O)cc1` [Example 23, 4-[4-Benzyl-6-chloro-8-(4-methyl-piperazin-1-yl)-1,1,3-trioxo-3,4-dihydro-1H-1λ^6-benzo[1,2,4]thiadiazin-2-ylmethyl]-benzoic acid methyl ester] had a melting point of 140 to 143 °C. The IC50 in data set [1] (setting [2]) was 28.8 nM.

For the molecule `CN1CCN(c2cc(Cl)cc3c2S(=O)(=O)N(Cc2ccc(C#N)cc2)C(=O)N3Cc2ccccc2)CC1` [Example 24, 4-[4-Benzyl-6-chloro-8-(4-methyl-piperazin-1-yl)-1,1,3-trioxo-3,4-dihydro-2H-1λ^6-benzo[1,2,4]thiadiazin-2-ylmethyl]-benzonitrile], the melting point was in the range of 134 to 135 °C. The molecule also registered a half-maximal inhibitory concentration (IC50) in data set [1] (setting [2]) of 6.4 nM. `COc1ccccc1N1C(=O)N(Cc2ccccc2)c2cc(Cl)cc(N3CCN(C)CC3)c2S1(=O)=O` [Example 28, 4-Benzyl-6-chloro-2-(2-methoxy-phenyl)-8-(4-methyl-piperazin-1-yl)-1,1-dioxo-1,4-dihydro-2H-1λ^6-benzo[1,2,4]thiadiazin-3-one] came in with a melting point of 119 to 120 °C. The same molecule displayed a half-inhibitory concentration (IC50) in data set [1] (setting [2]) of 7.1 nM. The corresponding values for `COc1cccc(N2C(=O)N(Cc3ccccc3)c3cc(Cl)cc(N4CCN(C)CC4)c3S2(=O)=O)c1` [Example 29, 4-Benzyl-6-chloro-2-(3-methoxy-phenyl)-8-(4-methyl-piperazin-1-yl)-1,1-dioxo-1,4-dihydro-2H-1λ^6-benzo[1,2,4]thiadiazin-3-one] are 191 to 193 °C and 1.7 nM.

As to `COc1ccc(N2C(=O)N(Cc3ccccc3)c3cc(Cl)cc(N4CCN(C)CC4)c3S2(=O)=O)cc1` [Example 30, 4-Benzyl-6-chloro-2-(4-methoxy-phenyl)-8-(4-methyl-piperazin-1-yl)-1,1-dioxo-1,4-dihydro-2H-1λ^6-benzo[1,2,4]thiadiazin-3-one], the melting point fell in the range of 115 to 116 °C. Moreover, the IC50 in data set [1] (setting [2]) was determined as 5.2 nM.

In turn, `CN1CCN(c2cc(Cl)cc3c2S(=O)(=O)N(C)C(=O)N3C)CC1` [Example 31, 6-Chloro-2,4-dimethyl-8-(4-methyl-piperazin-1-yl)-1,1-dioxo-1,4-dihydro-2H-1λ^6-benzo[1,2,4]thiadiazin-3-one] had a 50% inhibitory concentration (IC50) in data set [1] of 745 nM. Regarding `CN1CCN(c2cc(Cl)cc3c2S(=O)(=O)N(C)C(=O)N3Cc2ccccc2)CC1` [Example 32, 4-Benzyl-6-chloro-2-methyl-8-(4-methyl-piperazin-1-yl)-1,1-dioxo-1,4-dihydro-2H-1λ^6-benzo[1,2,4]thiadiazin-3-one], in data set [1] (setting [2]), the IC50 was 4.2 nM. In data set [1] (setting [2]), `CCCCCCCCCCN1C(=O)N(Cc2ccccc2)c2cc(Cl)cc(N3CCN(C)CC3)c2S1(=O)=O` [Example 40, 4-Benzyl-6-chloro-2-decyl-8-(4-methyl-piperazin-1-yl)-1,1-dioxo-1,4-dihydro-2H-1λ^6-benzo[1,2,4]thiadiazin-3-one] gave an IC50 of 4.5 nM. With `O=C1N(Cc2ccccc2)c2cc(Cl)cc(N3CCNCC3)c2S(=O)(=O)N1Cc1cccc(F)c1` [Example 46, 4-Benzyl-6-chloro-2-(3-fluoro-benzyl)-1,1-dioxo-8-piperazin-1-yl-1,4-dihydro-2H-1λ^6-benzo[1,2,4]thiadiazin-3-one], the melting point is 154 to 155 °C.

The molecule `CCCN1C(=O)N(Cc2ccccc2)c2cc(Cl)cc(N3CCNCC3)c2S1(=O)=O` [Example 65, 4-Benzyl-6-chloro-2-propyl-1,1-dioxo-8-piperazin-1-yl-1,4-dihydro-2H-1λ^6-benzo[1,2,4]thiadiazin-3-one] came in with a melting point of 148 to 150 °C. As for `CCCCCCCCCCN1C(=O)N(Cc2ccccc2)c2cc(Cl)cc(N3CCNCC3)c2S1(=O)=O` [Example 67, 4-Benzyl-6-chloro-2-decyl-1,1-dioxo-8-piperazin-1-yl-1,4-dihydro-2H-1λ^6-benzo[1,2,4]thiadiazin-3-one], in data set [1] (setting [2]), the IC50 was 3 nM. In the case of `O=C1N(Cc2ccccc2)c2cc(Cl)cc(N3CCN4CCC[C@@H]4C3)c2S(=O)(=O)N1Cc1ccccc1Cl` [Example 74, 4-Benzyl-6-chloro-2-(2-chloro-benzyl)-8-[(6R)-1,4-diazabicyclo[4.3.0]non-4-yl]-1,1-dioxo-1,4-dihydro-2H-1λ^6-benzo[1,2,4]thiadiazin-3-one], the melting point was 114 to 116 °C.

Values taken from patent publication US20100035866A1, “NOVEL SUBSTITUTED-1, 1-DIOXO-BENZO[1,2,4]THIADIAZIN-3ONES, PREPARATION METHOD THEREOF, AND PHARMACEUTICAL COMPOSITION CONTAINING THE SAME” (KOREA RESEARCH INSTITUTE OF CHEMICAL TECHNOLOGY, priority 2006, published 2010).
